Test results taken from patent US8609656B2, “Heteroarylphenylurea derivative” (Chugai Seiyaku Kabushiki Kaisha, priority 2004, dated 2013).
≈ marks a conversion by molar mass, not a printed value.

Key:
[1] = molecular target: T1, recombinant Raf-1 protein (activated type GST-Raf-1) (Homo sapiens, UniProt P04049); assay: RAF-1 enzyme inhibition test (33P incorporation into MEK 1 protein); type: biochemical; conditions: 10 μM ATP, GST-MEK1 substrate, 30° C., 45 minutes; read-out: Raf-1 Enzyme Inhibition, 50% Enzyme Inhibition Concentration (IC50 value)
T1 construct: fused on or other part: GST tag fused to Raf-1
T1 sequence (P04049 349-648 limits assumed): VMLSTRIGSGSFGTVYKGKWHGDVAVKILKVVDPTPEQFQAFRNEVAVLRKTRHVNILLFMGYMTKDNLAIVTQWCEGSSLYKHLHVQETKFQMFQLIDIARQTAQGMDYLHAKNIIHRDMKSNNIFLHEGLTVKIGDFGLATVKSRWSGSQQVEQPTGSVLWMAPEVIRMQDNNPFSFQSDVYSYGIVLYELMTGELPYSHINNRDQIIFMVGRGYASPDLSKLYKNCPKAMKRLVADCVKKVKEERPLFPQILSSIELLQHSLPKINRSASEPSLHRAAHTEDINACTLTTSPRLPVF
Outline: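 GST-MEK1 (2 μg) was phosphorylated by activated GST-Raf-1 (25 ng) with 10 μM ATP spiked with 33P-ATP, in Tris-HCl pH 7.5 with DTT, NaCl, KF, vanadate and 10 mM MgCl2, for 45 min at 30° C. Protein was precipitated with TCA and radioactivity counted on filters. IC50 was calculated from inhibition relative to a compound-free reference.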

[2] = test system: human colorectal cancer cell strain HCT 116; assay: Antitumor test, HCT 116 inoculated subcutaneously in nude mouse; type: in vivo, male Balb/c nude mouse; conditions: dosage 200 mg/kg, orally one time a day for 5 days, final administration day
Protocol: With respect to the compounds relating to the present invention and the known compound (BAY 43-9006), cell growth inhibition activity was measured.
(§1) A cell suspension of a human colorectal cancer cell strain HCT 116 was prepared with a Hunks' balanced salt solution. Its 5.0×10^6 were inoculated subcutaneously to the flank of each male Balb/c nude mouse. When the mean volume of a tumor reached 200 to 250 mm^3, a sample compound was orally administered one time a day for 5 days. The tumor volume was calculated from the calculation formula: 0.5×(minor diameter)^2×(major diameter), and the tumor growth inhibition ratio was calculated from the ratio of the tumor growth of the sample administered group to that of a reference group. The dosage in the antitumor test, the tumor growth inhibition ratio on the final administration day and the reduction in body weight on day 7 after starting administration are shown in Tables 6-1 and 6-2

[3] = Antitumor test, reduction in body weight; type: in vivo, male Balb/c nude mouse; conditions: dosage 200 mg/kg, orally one time a day for 5 days, day 7 after starting administration
Protocol: as §1

[4] = test system: VEGF non-dependent human umbilical vein endothelial cells (HUVEC); assay: Cell growth inhibition test, VEGF non-dependent HUVEC; type: cell-based; conditions: 72 hours, WST-1, read-out: HUVEC (VEGF Nondependence), 50% Growth Inhibition Concentration (IC50 value)
[5] = test system: VEGF dependent HUVEC; assay: Cell growth inhibition test, VEGF dependent HUVEC; type: cell-based; conditions: Homo sapiens, 20 ng/mL of VEGF, 72 hours, WST-1, read-out: HUVEC (VEGF Dependence), 50% Growth Inhibition Concentration (IC50 value)
[6] = test system: human colorectal cancer cell strain HCT 116; assay: Cell growth inhibition test, HCT 116; type: cell-based; conditions: 72 hours, read-out: HCT116, 50% Growth Inhibition Concentration (IC50 value)
[7] = Solubility to fasted state simulated intestinal fluid; type: physicochemical; conditions: fassif, kinetic from dmso stock, fasted state simulated intestinal fluid (pH 6.5), 37° C.
Outline: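 DMSO stock of compound added to FaSSIF (pH 6.5; taurocholate, phosphatidylcholine, KH2PO4, KCl) and shaken 20 h at 37° C. Filtrate diluted with ethanol:water 2:1 and read by UV absorbance; solubility taken as sample-to-standard absorbance ratio (blank-corrected) × 165 μM standard.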

IC50 [1]	IC50 [6]	solubility at 20 h [7]	SMILES	Tumor Inhibition Ratio (%) [2]	Body Weight Reduction ratio (%) [3]	IC50 [4]	IC50 [5]
0.053 µM	–	–	CNC(=O)c1nccc2c1ncn2-c1ccc(NC(=O)Nc2ccc(Cl)c(C(F)(F)F)c2)cc1 [Table 1, Compound 93, 1-{4-[3-(4-Chloro-3-(trifluoro-methyl)phenyl)ureido]phenyl}-1H-imidazo[4,5-c]pyridine-4-carboxylic acid methylamide]	79%	6.0%	–	–
0.11 µM	1.7 µM	158 µg/mL (≈ 293 µM)	CNc1ncnc2c1ncn2-c1ccc(NC(=O)Nc2cc(CN3CCN(C)CC3)cc(C(F)(F)F)c2)cc1 [Table 2, Compound 25, 1-[4-(6-(Methylamino)purin-9-yl)phenyl]-3-[3-(4-methyl-piperazin-1-ylmethyl)-5-(tri-fluoromethyl)phenyl]urea]	80%	2.7%	1.7 µM	0.28 µM
0.013 µM	3.7 µM	39 µg/mL (≈ 73.2 µM)	CCCNC(=O)Nc1ncnc2c1ncn2-c1ccc(NC(=O)Nc2ccc(Cl)c(C(F)(F)F)c2)cc1 [Table 1, Compound 119, 1-(9-{4-[3-(4-Chloro-3-(tri-fluoromethyl)phenyl)ureido]-phenyl}-9H-purin-6-yl)-3-propylurea]	89%	8.5%	0.97 µM	0.064 µM
0.19 µM	–	105 µg/mL (≈ 217 µM)	CNc1ncnc2c1ncn2-c1ccc(NC(=O)Nc2cc(CN(C)C)cc(C(F)(F)F)c2)cc1 [Table 2, Compound 30, 1-(3-Dimethylaminomethyl-5-(trifluoromethyl)phenyl)-3-[4-(6-(methylamino)purin-9-yl)-phenyl]urea]	131%	5.7%	–	–
0.11 µM	0.7 µM	22 µg/mL	CNc1ncnc2c1ncn2-c1ccc(NC(=O)Nc2ccc(Cl)c(C(F)(F)F)c2)cc1.Cl [Table 1, Compound 36, 1-(4-Chloro-3-(trifluoromethyl)phenyl)-3-[4-(6-(methylamino)purin-9-yl)phenyl]urea hydrochloride]	81%	5.9%	0.25 µM	0.079 µM
0.083 µM	–	61 µg/mL (≈ 116 µM)	CN1CCN(Cc2cc(NC(=O)Nc3ccc(-n4cnc5c(N)ncnc54)cc3)cc(C(F)(F)F)c2)CC1 [Table 2, Compound 26]	72%	5.0%	–	–
